Data taken from article PMC7647782, “Cytotoxic, Antioxidant, and Metabolic Enzyme Inhibitory Activities of Euphorbia cyparissias Extracts” (Oxidative Medicine and Cellular Longevity, 2020).

Target: DrPLA2-IB (Camelus dromedarius, UniProt A0A5N4C9D4)
Experiment: Phospholipase activity inhibition, dromedary PLA2-IB
Format: biochemical
Protocol: Dromedary (DrPlA2-IB), porcine (PPPlA2-IB), and stingray group IB phospholipases (SPLA2-IB) were purified and prepared as described in our previous works and De Haas et al., respectively. Dromedary (DrPL), stingray (SPL), and porcine (PPL) lipases were also purified according to protocols optimized in previous works. The enzymes β-glucosidase, α-amylase, and XO were purchased from Sigma-Aldrich (St. Louis, MO, USA).
The phospholipase activities were measured based on the De Araújo and Radvanyi method. The inhibitory effect of various extracts was determined using samples of dromedary, stingray, and porcine digestive group IB phospholipases (PLA2-IB). A 10 μL sample of ethanolic or aqueous extract was mixed with 10 μL of PLA2-GIB and preincubated for 20 min at room temperature. The mixture was added to 1 mL of the substrate, which was composed of lecithin (3.5 mM) solubilized in 100 mM NaCl, 3 mM sodium taurodeoxycholate, 10 mM CaCl2, and 0.055 mM red phenol at a pH of 7.6. The activity was verified by measuring spectrophotometrically the absorbance at 558 nm for 5 min. The inhibition percentage was calculated by measuring residual activity compared to negative control assay (absence of extract). The IC50 values were determined from the curve.
The activities of these enzymes were measured using the pH-stat technique on olive oil emulsion at optimal conditions for enzyme activity. […]

Sequence of DrPLA2-IB (A0A5N4C9D4 23-145): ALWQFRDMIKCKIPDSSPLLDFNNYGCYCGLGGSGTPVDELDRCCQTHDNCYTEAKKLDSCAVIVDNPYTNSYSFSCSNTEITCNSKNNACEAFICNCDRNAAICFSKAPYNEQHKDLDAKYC

CC1(C)CC[C@]2(C(=O)O)CC[C@]3(C)C(=CC[C@@H]4[C@@]5(C)CC[C@H](O)C(C)(C)[C@@H]5CC[C@]43C)[C@@H]2C1 [Oleanolic acid, oleanolic acid]
IC50: 174 µM
